Measurements from ChEMBL document CHEMBL3045125, “Isolation and Insecticidal Activity of Three Acetogenins from Seeds of Pond Apple, Annona glabra L” (1991).
The source made the active and inactive calls. No cut-off for these calls is given here.

How the values were obtained:
Callosobruchus chinensis [1] = assay: Insecticidal activity against adult of Callosobruchus chinensis assessed as mortality at 5 ug/insect applied topically after 24 hr relative to control; assay type: functional
Callosobruchus chinensis [2] = assay: Insecticidal activity against adult of Callosobruchus chinensis assessed as mortality at 1 ug/insect applied topically after 24 hr relative to control; assay type: functional
Callosobruchus chinensis [3] = assay: Insecticidal activity against adult of Callosobruchus chinensis assessed as mortality at 0.5 ug/insect applied topically after 24 hr relative to control; assay type: functional
Callosobruchus chinensis [4] = assay: Insecticidal activity against adult of Callosobruchus chinensis assessed as mortality at 0.1 ug/insect applied topically after 24 hr relative to control; assay type: functional
Tetranychus urticae = assay: Insecticidal activity against adult of Tetranychus urticae (two-spotted spider mite) in kidney bean leaf assessed as egg hatching ability after 1 week; assay type: functional, organism-based
Nephotettix cincticeps = assay: Insecticidal activity against 2nd-instar nymphs of Nephotettix cincticeps (green rice leafhopper) in rice seedlings assessed as lethality at 10 mg/ml after 1 week; assay type: functional, organism-based
[5] = tested on: Henosepilachna vigintioctopunctata; assay: Insecticidal activity against second-instar larvae of Henosepilachna vigintioctopunctata assessed as lethality at 10 mg/ml measured everyday for 1 week; assay type: functional, organism-based
Crocidolomia = assay: Insecticidal activity against second-instar larvae of Crocidolomia binotalis in cabbage leaf assessed as growth inhibition at 10 mg/ml after 2 days; assay type: functional, organism-based
Plutella xylostella = assay: Insecticidal activity against 2nd-instar larvae of Plutella xylostella (diamondback moth) in cabbage leaf assessed as lethality and growth inhibition at 0.1 mg/ml after 2 days; assay type: functional, organism-based
Mamestra brassicae = assay: Insecticidal activity against third-instar larvae of Mamestra brassicae in cabbage leaf assessed as feeding deterrent and growth inhibition at 10 mg/ml after 2 days; assay type: functional, organism-based

Structure (SMILES): CCCCCCCCCCC(O)C1CCC(C2CCC(C(O)CCCCCCCC[C@H](O)CC3=C[C@@H](C)OC3=O)O2)O1 (stereo partly drawn) [ASIMICIN]
- Activity (Callosobruchus chinensis [1]): 100%
- Activity (Callosobruchus chinensis [2]): 85%
- Activity (Callosobruchus chinensis [3]): 60%
- Activity (Callosobruchus chinensis [4]): 15%

Structure (SMILES): CCCCCC[C@H](O)CCC[C@H](O)[C@H]1CC[C@H]([C@H]2CC[C@H]([C@H](O)CCCCCCCCCCCCC3=C[C@H](C)OC3=O)O2)O1 [SQUAMOCIN]
- Activity (Tetranychus urticae): inactive
- Activity (Nephotettix cincticeps): Active
- Activity [5]: Active
- Activity (Crocidolomia): Active
- Activity (Plutella xylostella): Active
- Activity (Mamestra brassicae): Active
- Activity (Callosobruchus chinensis [1]): 90%
- Activity (Callosobruchus chinensis [2]): 29%
- Activity (Callosobruchus chinensis [3]): 20%
- Activity (Callosobruchus chinensis [4]): 0%

Structure (SMILES): CCCCCCCCCC[C@H](O)[C@H]1CC[C@H]([C@H]2CC[C@H]([C@H](O)CCCCCCCCCCCCC3=C[C@H](C)OC3=O)O2)O1 [BULLANIN]
- Activity (Callosobruchus chinensis [1]): 90%
- Activity (Callosobruchus chinensis [2]): 25%
- Activity (Callosobruchus chinensis [3]): 10%
- Activity (Callosobruchus chinensis [4]): 0%
